Laboratory results: patent US20130079364A1, “Peripheral Opioid Agonists and Peripheral Opioid Antagonists” (SIGNATURE THERAPEUTICS, INC., priority 2010, published 2013)
Like-named read-outs stand apart in the source and are kept apart here.

Key:
[1] = Plasma and cerebrospinal fluid penetration following IV administration to rats; conditions: for Compound conc. in CSF / Compound conc. in plasma / Plasma/CSF partitioning coefficient / concentration at 2 min: rats; for concentration at 2 min: male, Sprague Dawley, rat, in vivo, iv, 10 mg/kg, Compound conc. in CSF
human μ-opioid receptor [2] = target: T1, human μ-opioid receptor (Homo sapiens, UniProt P35372); experiment: In vitro human μ-opioid receptor antagonist cellular functional assay (cAMP, HTRF); type: cell-based; conditions: for EC50: CHO cells expressing human μ-opioid receptor
T1 construct: expressed in transfected cells; host or cells: CHO (Chinese hamster ovary) cells
T1 sequence (P35372 whole entry): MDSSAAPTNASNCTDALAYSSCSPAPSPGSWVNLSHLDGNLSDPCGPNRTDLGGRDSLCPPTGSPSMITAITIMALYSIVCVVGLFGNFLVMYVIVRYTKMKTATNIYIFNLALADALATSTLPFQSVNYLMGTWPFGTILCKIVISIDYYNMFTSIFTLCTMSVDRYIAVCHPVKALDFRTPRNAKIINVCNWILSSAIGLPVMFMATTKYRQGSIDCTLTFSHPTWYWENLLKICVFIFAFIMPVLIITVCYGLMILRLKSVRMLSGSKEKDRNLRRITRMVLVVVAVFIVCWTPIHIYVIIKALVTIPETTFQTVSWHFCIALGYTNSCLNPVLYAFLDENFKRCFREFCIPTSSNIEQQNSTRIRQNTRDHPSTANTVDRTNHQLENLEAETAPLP
Description: (§1) This Example measures the ability of certain compounds of the present disclosure to effect an agonist or antagonist response when exposed to recombinant human μ-opioid receptor expressed in CHO cells.
(§2) The general procedure follows the protocol described by Wang, J.-B., Johnson, P. S., Perscio, A. M., Hawkins, A. L., Griffin, C. A. and Uhl, G. R. (1994). FEBS Lett., 338: 217-222. More specifically, the assays included each of the compounds indicated in Table 1 and recombinant Chinese hamster ovary (CHO) cells expressing the human μ-opioid receptor on their cell surfaces. The control reaction included 1 μM DAMGO. The reaction mixtures were incubated at 37° C. for 10 min, and the reaction product was cyclic AMP (cAMP). The samples were submitted to homogeneous time resolved fluorescence (HTRF®). EC50 values (concentration producing a half-maximal specific response) were determined by non-linear regression fit using the Hillplot software.

human μ-opioid receptor [3] = target: T1, human μ-opioid receptor; experiment: cell-based; conditions: for EC50: CHO cells expressing human μ-opioid receptor, read-out: Agonist EC50
Description: as §1, §2

[4] = Pharmacokinetics following IV administration to rats (plasma, HPLC/MS); conditions: male, Sprague Dawley, rat
[5] = male, Sprague Dawley, rat, in vivo, iv, 10 mg/kg
inflammatory pain = experiment: Carrageenan-induced inflammatory paw model (Randall Selitto test); type: in vivo, Sprague-Dawley rats; conditions: 200 mg/kg Compound AG-2 oral gavage three hours after carrageenan; FIG. 10
Protocol: The carrageenan-induced inflammatory paw model (see, e.g., Bileviciute-Ljungar I et al, 2006, J Pharmacol Exp Ther 317, 220-227) was used to assess the ability of peripheral opioid agonist Compound AG-2 to reduce inflammatory pain, by measuring paw withdrawal latency in response to mechanical stimulation of the paw.
Sprague-Dawley rats, fasted for approximately 18 hours prior to compound administration, were used for this study. Rats were injected in the plantar surface of the right hindpaw with 100 ul of a 1% carrageenan solution formulated in water (carrageenan available from Spectrum Chemical Manufacturing Corporation, Gardena, Calif.) three hours prior to compound administration, in order to elicit maximum edema formation. The hindpaw withdrawal latency to mechanical stimulation for each paw was tested before compound administration for use as a pre-treatment baseline, and at specific time points after compound administration using the Randall Selitto test (instrument available from IITC Inc. Life Science, Woodland Hills, Calif.). Briefly, the hindpaw was pinched until the animal retracted its paw. The amount of force (in grams) required to elicit a withdrawal response was assessed. Two repeat measures were taken at each time point, and the averaged value from the inflamed paw was used to quantify the percentage of change from the pre-treatment baseline. […]

[6] = Pharmacokinetics following PO administration to rats (plasma, HPLC/MS); conditions: male, Sprague Dawley, rat, 20 mg/kg
Protocol: At specified time points, blood samples were drawn, harvested for plasma via centrifugation at 5,400 rpm at 4° C. for 5 min, and 100 microliters (μl) plasma transferred from each sample into a fresh tube containing 2 μl of 50% formic acid. The tubes were vortexed for 5-10 seconds, immediately placed in dry ice and then stored in a −80° C. freezer until analysis by HPLC/MS.
(§3) At specified time points, blood samples were drawn, harvested for plasma via centrifugation at 5,400 rpm at 4° C. for 5 min, and 100 μl plasma transferred from each sample into a fresh tube containing 2 μl of 50% formic acid. The tubes were vortexed for 5-10 seconds, immediately placed in dry ice and then stored in a −80° C. freezer until analysis by HPLC/MS.
as §3, §3

CNS opioid receptors = experiment: Rat tail flick latency assay, morphine induced analgesia; type: in vivo, Sprague Dawley rats; conditions: antagonist subcutaneously 70 min after 5 mg/kg morphine; Compound AN-1, AN-6 0.3 mg/kg, naltrexone 1.8 mg/kg; FIG. 8
Protocol: A rat tail flick latency assay (see, e.g., Tejwani G et al., 2002, Anesth Analg 94, 1542-1546) was used to determine whether peripheral opioid antagonists of the embodiments were capable of effecting antagonist activity at opioid receptors in the central nervous system. In such an assay, the tails of rats are exposed to a noxious stimulus, such as heat, and tail withdrawal latency is measured. The latency (i.e., time between exposure and reaction) is an indication of the amount of pain experienced by the rat.
In this study, the tails of healthy male Sprague Dawley rats (5 per group) were painted with India ink (i.e., a 6-cm portion, starting at the tip). The rats were then placed in Broome Restrainers and allowed to acclimate for at least 15 min. At the conclusion of the acclimation period, baseline tail withdrawal latencies (baseline latency) were measured by exposing the rats to a focused light beam of 80 volts at a position 6.5 cm above the tail until the rats flicked their tail out of the path of the light beam. This step was repeated twice for each rat, in two spots, i.e., 2 cm and 4 cm from the tip of the tail. The responses were averaged and used as a baseline latency value for comparison to post-drug treatment latency values.

[7] = IV 10 mg/kg of each compound, 2-min time point (Table 12)
[8] = IV 10 mg/kg Compound AN-1, 2-minute time point

Question: Which results are given for `CC(=O)N[C@H](CC(=O)O)C(=O)NCCN(C)C(=O)OC1=CC[C@@]2(O)C3Cc4ccc(O)c5c4[C@@]2(CCN3CC2CC2)[C@H]1O5` [Compound AN-7, N-(naltrexone-6-enol-carbonyl-methylamino)ethylamine-D-aspartic acid-acetate]?
Answer: Compound conc. in CSF [1, 7]: 462 ng/mL; Compound conc. in plasma [1, 7]: 76,600 ng/mL; Plasma/CSF partitioning coefficient [1, 7]: 166; EC50 (human μ-opioid receptor [2]; Antagonist EC50, Table 15, Example 24): 300 nM; NTX/Compound AN-7 relative potency (human μ-opioid receptor [2]; EC50 at the human μ-opioid receptor, naltrexone to Compound AN-7): 8.6

Question: Which “HM/Compound AG-4 relative potency” value (human μ-opioid receptor [3]; EC50 at the human μ-opioid receptor, hydromorphone to Compound AG-4) does the source give for `CN(CCNC(=O)[C@@H](CCCNC(=N)N)NC(=O)CC(=O)O)C(=O)OC1=CCC2C3Cc4ccc(O)c5c4[C@@]2(CCN3C)[C@H]1O5` (stereo partly drawn) [Compound AG-4, N-(hydromorphone-6-enol-carbonyl-methyl-amino)ethylamine-D-arginine-malonic acid] here?
Answer: 16.1

Question: What about the EC50 (human μ-opioid receptor [3]; Table 15, Example 24) of the same molecule?
Answer: 37 nM

Question: With `COc1ccc2c3c1O[C@H]1C(OC(=O)N(C)CCNC(=O)[C@@H](CCCNC(=N)N)NC(=O)CC(=O)O)=CC[C@@]4(O)[C@@H](C2)N(C)CC[C@]314` [Compound AG-2, N-(oxycodone-6-enol-carbonyl-methylamino)ethylamine-D-arginine-malonic acid] as the molecule, how does the Cmax ([4]; 2 mg/kg) read?
Answer: 3410 ng/mL

Question: What about the “OC/Compound AG-2 relative potency” value (human μ-opioid receptor [3]) of the same molecule?
Answer: 10.9

Question: What about the EC50 (human μ-opioid receptor [3]; Table 1, Example 9, 37° C. 10 min) of the same molecule?
Answer: 850 nM

Question: What about the “Compound conc. in CSF” value [5] of the same molecule?
Answer: 22.8 ng/mL

Question: And the “Compound conc. in plasma” value [5]?
Answer: 28,600 ng/mL

Question: And the Plasma/CSF partitioning coefficient [5]?
Answer: 1,254

Question: What about the “increase in pain tolerance compared to the untreated rats” value (inflammatory pain) of the same molecule?
Answer: approximately 50%

Question: And the Cmax [6]?
Answer: 46.1 ± 0.9 ng/mL

Question: What about the Tmax [6] of the same molecule?
Answer: 37.5 ± 15 min

Question: Which “effect on morphine induced analgesia (% MPE, tail flick)” value (CNS opioid receptors) does the source give for `CN(CCNC(=O)[C@@H](CCCCN)NC(=O)CC(=O)O)C(=O)OC1=CC[C@@]2(O)C3Cc4ccc(O)c5c4[C@@]2(CCN3CC2CC2)[C@H]1O5` [Compound AN-6, N-(naltrexone-6-enol-carbonyl-methylamino)ethylamine-D-lysine-malonic acid] here?
Answer: no inhibition of analgesia

Question: What about the “Compound conc. in CSF” value [1, 7] of the same molecule?
Answer: 95.0 ng/mL

Question: And the “Compound conc. in plasma” value [1, 7]?
Answer: 79,400 ng/mL

Question: And the Plasma/CSF partitioning coefficient [1, 7]?
Answer: 836

Question: Which “Compound conc. in CSF” value [1, 7] does the source give for `C=CCN1CC[C@]23c4c5ccc(O)c4O[C@H]2C(OC(=O)N(C)CCNC(=O)[C@@H](CCCNC(=N)N)NC(=O)CC(=O)O)=CC[C@@]3(O)C1C5` [Compound AN-4, N-(naloxone-6-enol-carbonyl-methylamino)ethylamine-D-arginine-malonic acid] here?
Answer: 101 ng/mL

Question: And the “Compound conc. in plasma” value [1, 7]?
Answer: 49,200 ng/mL

Question: What about the Plasma/CSF partitioning coefficient [1, 7] of the same molecule?
Answer: 487

Question: What does the source list for `O=C1CC[C@@]2(O)[C@H]3Cc4ccc(O)c5c4[C@@]2(CCN3CC2CC2)[C@H]1O5` [Naltrexone, naltrexone, reference compound]?
Answer: Compound conc. in plasma [5]: 9.17 ng/mL; effect on morphine induced analgesia (% MPE, tail flick) (CNS opioid receptors): rapid inhibition of analgesia; concentration at 2 min [1, 8]: 7.44 ng/mL; concentration at 2 min ([1]; IV 10 mg/kg Compound AN-3, 2-minute time point): 0.813 ng/mL; Compound conc. in plasma [1, 8]: 71.1 ng/mL

Question: For `CN(CCNC(=O)[C@@H](CCCNC(=N)N)NC(=O)CC(=O)O)C(=O)OC1=CC[C@@]2(O)[C@H]3Cc4ccc(O)c5c4[C@@]2(CCN3CC2CC2)[C@H]1O5` [Compound AN-1, N-(naltrexone-6-enol-carbonyl-methylamino)ethylamine-D-arginine-malonic acid], which Cmax ([4]; 10 mg/kg) is on record?
Answer: 46300 ng/mL

Question: What about the “effect on morphine induced analgesia (% MPE, tail flick)” value (CNS opioid receptors) of the same molecule?
Answer: no inhibition of analgesia

Question: What about the “relative plasma/CSF partitioning coefficient of Compound AN-1 to naltrexone” value ([1]; 620/9.6) of the same molecule?
Answer: about 65

Question: And the “Compound conc. in CSF” value [1, 8]?
Answer: 74.7 ng/mL

Question: And the “Compound conc. in plasma” value [1, 8]?
Answer: 46,300 ng/mL

Question: And the Plasma/CSF partitioning coefficient [1, 8]?
Answer: 620

Question: What about the EC50 (human μ-opioid receptor [2]; Antagonist EC50, Table 1, Example 9, 37° C. 10 min) of the same molecule?
Answer: 180 nM

Question: And the “NTX/Compound AN-1 relative potency” value (human μ-opioid receptor [2]; EC50 at the human μ-opioid receptor, naltrexone to Compound AN-1)?
Answer: 6.0

Question: What about the AUC [6] of the same molecule?
Answer: 139 ± 32 ng·h/mL

Question: What about the Cmax [6] of the same molecule?
Answer: 41 ± 13 ng/mL

Question: And the Tmax [6]?
Answer: 45 ± 17.4 min
